For data set [1], the system named is mustard beetle (Phaedon cochleariae). The experiment in a line: Phaedon test (PHAECO spray treatment), Example 16. Format: in vivo. The note with it: Phaedon cochleariae, foliar, china cabbage leaf discs sprayed, after the desired time, read-out: efficacy in %; for pest or weed control at 100 g/ha: application rate 100 g/ha; for pest or weed control at 500 g/ha: application rate 500 g/ha. The method, then: Phaedon Test (PHAECO Spray Treatment)
(§1) • Solvent: 78.0 parts by weight of acetone • 1.5 parts by weight of dimethylformamide • Emulsifier: 0.5 part by weight of alkylaryl polyglycol ether
To prepare an appropriate active ingredient formulation, 1 part by weight of active ingredient is mixed with the stated amounts of solvent and emulsifier, and the concentrate is diluted with emulsifier-containing water to the desired concentration. […]
After the desired time, the efficacy in % is determined. 100% means that all beetle larvae were killed; 0% means that no beetle larvae were killed.

Data set [2] has as its system red spider mite (Tetranychus urticae). As to the kind of experiment: Tetranychus test; OP-resistant (TETRUR spray treatment), Example 18. It counts as in vivo. As to conditions: Tetranychus urticae, foliar, 144 h, common bean leaf discs sprayed, after 6 days, read-out: efficacy in %; for pest or weed control at 100 g/ha: application rate 100 g/ha; for pest or weed control at 500 g/ha: application rate 500 g/ha. Here is the method: Tetranychus Test; OP-Resistant (TETRUR Spray Treatment)
as §1
To prepare an appropriate active ingredient formulation, 1 part by weight of active ingredient is mixed with the stated amounts of solvent and emulsifier, and the concentrate is diluted with emulsifier-containing water to the desired concentration. Leaf discs from the common bean (Phaseolus vulgaris) infested by all stages of the red spider mite (Tetranychus urticae) are sprayed with an active ingredient formulation of the desired concentration.
After 6 days, the efficacy in % is determined. 100% means that all spider mites were killed; 0% means that no spider mites were killed.

Data set [3] in a line: logP by HPLC on reverse-phase column (EEC Directive 79/831 Annex V.A8). It counts as physicochemical. As to conditions: for chromatographic logP: reverse-phase C18 HPLC column. The method, then:
The logP values reported in the above Tables and Preparation Examples were determined according to EEC Directive 79/831 Annex V.A8 by HPLC (High Performance Liquid Chromatography) on a reverse-phase column (C18). Temperature 43° C.

For data set [4], the system named is armyworm (Spodoptera frugiperda). The experiment in a line: Spodoptera frugiperda test (SPODFR spray treatment), Example 15. The note with it: Spodoptera frugiperda, foliar, 168 h, maize leaf discs sprayed, after 7 days, read-out: efficacy in %; for pest or weed control at 100 g/ha: application rate 100 g/ha; for pest or weed control at 500 g/ha: application rate 500 g/ha. Format: in vivo. The method, boiled down: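 Maize leaf discs sprayed with active ingredient in acetone/DMF with alkylaryl polyglycol ether emulsifier, diluted in water, then populated with caterpillars after drying. Efficacy in % after 7 days: 100% all caterpillars killed, 0% none.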

Data set [5] relates to mustard beetle (Phaedon cochleariae). The experiment in a line: Phaedon test (PHAECO spray treatment), Example 7. The note with it: application rate 20 g/ha, china cabbage leaf discs sprayed, after 7 days. It counts as in vivo. The procedure, abridged:
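Spray formulation (acetone/DMF with alkylaryl polyglycol ether, diluted in emulsifier-containing water) applied to Chinese cabbage leaf discs, which were dried and then stocked with mustard beetle larvae. Efficacy scored at 7 days as % larvae killed (100% all, 0% none).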

In data set [6] the test system is Boophilus microplus. The experiment in a line: Boophilus microplus test (BOOPMI injection), Example 11. It counts as in vivo. The note with it: application rate 20 μg/animal, injected into abdomen, after 7 days; for pest or weed control at 0.02 mg: Rhipicephalus microplus, 168 h, read-out: efficacy in % (fertile eggs laid). The method, boiled down: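 Adult ticks injected in the abdomen with compound diluted in DMSO, then held in a climate-controlled room. Efficacy in % determined after 7 days from fertile eggs laid; 100% means no tick laid fertile eggs.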

Data set [7] deals with Boophilus microplus. The experiment in a line: Boophilus microplus test (BOOPMI injection), Example 1. It counts as in vivo. The note with it: application rate 20 μg/animal, injected into abdomen, after 7 days. The method, then:
Boophilus microplus Test (BOOPMI Injection) • Solvent: dimethyl sulphoxide To prepare an active ingredient formulation, 10 mg of active ingredient are mixed with 0.5 ml of solvent and the concentrate is diluted with water to the desired concentration. The active ingredient solution was injected into the abdomen (Boophilus microplus), and the animals were transferred to dishes and stored in a climate-controlled room. The efficacy was assessed by the number of fertile eggs laid. After 7 days, the efficacy in % is determined. 100% means that no tick laid fertile eggs.

A further data set relates to Ctenocephalides felis. The experiment in a line: Ctenocephalides felis oral (CTECFE), Example 2. As to conditions: application rate 20 ppm in citrated cow's blood, after 2 days. Format: in vivo. Here is the method:
Ctenocephalides felis Oral ([…]) • Solvent: 1 part by weight of dimethyl sulphoxide For the purpose of preparing an active ingredient formulation, 10 mg of active ingredient are mixed with 0.5 ml of dimethyl sulphoxide. A portion of the concentrate was diluted with citrated cow's blood and the desired concentration was prepared. 20 unfed adult fleas (Ctenocephalides felis) are placed into a chamber sealed at the top and bottom with gauze. A metal cylinder with its lower end sealed with Parafilm is placed onto the chamber. The cylinder contains the blood-active ingredient preparation, which can be consumed by the fleas through the Parafilm membrane. After 2 days, the kill rate in % is determined. 100% means that all fleas were killed; 0% means that no fleas were killed.

For the next data set, the system named is Lucilia cuprina larvae. The experiment in a line: Lucilia cuprina test (LUCICU), Example 3. It counts as in vivo. The note with it: application rate 20 ppm, treated horsemeat, after 2 days. Here is the method:
Lucilia cuprina Test (LUCICU) • Solvent: dimethyl sulphoxide To prepare an active ingredient formulation, 10 mg of active ingredient are mixed with 0.5 ml of dimethyl sulphoxide, and the concentrate is diluted with water to the desired concentration. Vessels containing horsemeat which has been treated with the active ingredient formulation of the desired concentration are populated with Lucilia cuprina larvae. After 2 days, the kill rate in % is determined. 100% means that all larvae were killed; 0% means that no larvae were killed.

The subject of a further data set is Musca domestica adults. As to the kind of experiment: Musca domestica test (MUSCDO), Example 14. It counts as in vivo. The note with it: application rate 100 ppm, treated sponge, after 2 days. Here is the method:
Musca domestica Test (MUSCDO) • Solvent: dimethyl sulphoxide To prepare an appropriate active ingredient formulation, 10 mg of active ingredient are mixed with 0.5 ml of dimethyl sulphoxide, and the concentrate is diluted with water to the desired concentration. Vessels containing a sponge which has been treated with the active ingredient formulation of the desired concentration are populated with Musca domestica adults. After 2 days, the kill rate in % is determined. 100% means that all flies were killed; 0% means that no flies were killed.

The test system of data set [8] is red spider mite (Tetranychus urticae). The experiment in a line: Tetranychus test, OP-resistant (TETRUR spray treatment), Example 8. It counts as in vivo. The note with it: application rate 20 g/ha, common bean leaf discs sprayed, after 6 days. The procedure, abridged:
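Bean (Phaseolus vulgaris) leaf discs carrying all stages of OP-resistant Tetranychus urticae sprayed with compound in acetone/DMF with emulsifier, diluted in water to the test concentration. Mortality scored after 6 days as % efficacy (100% = all mites killed).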

Data set [9] concerns green peach aphid (Myzus persicae). As to the kind of experiment: Myzus test (MYZUPE spray treatment), Example 17. Format: in vivo. As to conditions: application rate 100 g/ha, china cabbage leaf discs sprayed, after 6 days. The method, boiled down: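 Chinese cabbage leaf discs infested with all aphid stages were sprayed with compound formulated in acetone/dimethylformamide plus alkylaryl polyglycol ether emulsifier, diluted in emulsifier-containing water. Mortality read after 6 days as % efficacy (100% all killed, 0% none killed).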

Where [10] appears, read: pH 2.7, HPLC, C18 reverse phase, 43° C., acidic range pH 2.7, calibration with alkan-2-ones.

Experimental findings from patent US8889878B2, “Haloalky-substituted amides as insecticides and acaricides” (Bayer CropScience AG, priority 2009, dated 2014) are described below.

In general, chromatographic logP refers to a lipophilicity value derived from retention on a column. A high value points to higher lipophilicity. For `O=C(/C=C\c1ccc(C(=O)NC2CC2)c(Cl)c1)NC(c1cccc(C(F)(F)F)c1)C(F)(F)F` (stereo not shown) [Ig-1, 2-Chloro-N-cyclopropyl-4-[(1Z)-3-oxo-3-({2,2,2-trifluoro-1-[3-(trifluoromethyl)phenyl]ethyl}-amino)prop-1-en-1-yl]benzamide], the pest or weed control at 100 g/ha was 100% in [1] and 80% in data set [2]. For the same compound, the chromatographic logP in data set [3] (setting [10]) was 3.06.

`CC(=O)NC1CCc2cc(/C=C/C(=O)NC(c3cccc(C(F)(F)F)c3)C(F)(F)F)ccc21` (stereo not shown) [Ie-1, (2E)-3-(1-Acetamido-2,3-dihydro-1H-inden-5-yl)-N-{2,2,2-trifluoro-1-[3-(trifluoromethyl)-phenyl]ethyl}acrylamide]: the pest or weed control at 100 g/ha in data set [4] stood at 100%; in data set [1] it was 100%; in [2], 90%. Moreover, the chromatographic logP in [3] (setting [10]) was found to be 3.

With `O=C(NC(c1cccc(C(F)(F)F)c1)C(F)(F)F)c1cc2cc(C(=O)NC3CC3)c(Cl)cc2[nH]1` (stereo not shown) [Ic-24, 6-Chloro-N^5-cyclopropyl-N^2-{2,2,2-trifluoro-1-[3-(trifluoromethyl)phenyl]ethyl}-1H-indole-2,5-dicarboxamide], the efficacy in % in data set [5] was found to be 100%. In addition, in the data set with Boophilus microplus [6], the pest or weed control at 0.02 mg was found to be 100%. Besides, the pest or weed control at 500 g/ha in data set [4], in data set [1] and in data set [2] was 100% throughout. The same compound gave a chromatographic logP in [3] (setting [10]) of 3.08.

As for `O=C(/C=C/c1ccc(C(=O)NCC(F)(F)F)c(Br)c1)NC(c1cccc(C(F)(F)F)c1)C(F)(F)F` (stereo not shown) [Ia-45], the “efficacy in % (fertile eggs laid)” value with Boophilus microplus [7] and in the data set on Boophilus microplus [6] was 100% in each case. For the same compound, the “kill rate in % (efficacy)” value in the data set on Ctenocephalides felis was 98%; in the data set with Lucilia cuprina larvae, 100%; in the data set with Musca domestica adults it was 100%. Further, the logP result in data set [3] (HPLC-MS) is on record as “HPLC-MS: logP = 3.60; mass”.

Consider `CN(C(=O)c1ccc(/C=C/C(=O)NC(c2cccc(C(F)(F)F)c2)C(F)(F)F)cc1C(F)(F)F)C1CC1` (stereo not shown) [Ia-60], for which the “efficacy in % (fertile eggs laid)” value with Boophilus microplus [7] and in the data set with Boophilus microplus [6] was 100% in each case. Moreover, the figures for the “kill rate in % (efficacy)” value with Ctenocephalides felis, in the data set on Lucilia cuprina larvae and in the data set with Musca domestica adults were 100%, 90% and 95%, respectively. Moreover, the efficacy in % in data set [5] worked out at 100%; in [8], 90%. In addition, the logP entry in data set [3] (HPLC-MS) is recorded as “HPLC-MS: logP = 3.62; mass”.

For `O=C(/C=C/c1ccc(C(=O)NC2CC2)c(C(F)(F)F)c1)NC(c1cc(Cl)cc(C(F)(F)F)c1)C(F)(F)F` (stereo not shown) [Ia-40, 4-[(1E,Z)-3-({1-[3-Chloro-5-(trifluoromethyl)phenyl]-2,2,2-trifluoroethyl}amino)-3-oxoprop-1-en-1-yl]-N-cyclopropyl-2-(trifluoromethyl)benzamide], the “efficacy in % (fertile eggs laid)” value in the data set on Boophilus microplus [7] is reported as 100%. The “kill rate in % (efficacy)” value was 100% in the data set with Ctenocephalides felis, 90% in the data set with Lucilia cuprina larvae and 85% with Musca domestica adults. The pest or weed control at 0.02 mg with Boophilus microplus [6] came to 100%. For the same compound, the chromatographic logP in data set [3] (setting [10]) came to 3.68.

For `CC(C)C(=O)NCc1ccc(/C=C/C(=O)NC(c2cccc(C(F)(F)F)c2)C(F)(F)F)cc1C(F)(F)F` (stereo not shown) [Ia-266, (2E)-3-{4-[(Isobutyrylamino)methyl]-3-(trifluoromethyl)phenyl}-N-{2,2,2-trifluoro-1-[3-(trifluoromethyl)phenyl]ethyl}acrylamide], the figures for the pest or weed control at 100 g/ha in data set [4], in data set [1] and in [2] were 100%, 100% and 90%, respectively. The chromatographic logP in data set [3] (setting [10]) is 3.78.

For `O=C(/C=C/c1ccc(C(=O)NC2CSC2)c(C(F)(F)F)c1)NC(c1cccc(C(F)(F)F)c1)C(F)(F)F` (stereo not shown) [Ia-130, 4-[(1E)-3-oxo-3-({2,2,2-trifluoro-1-[3-(trifluoromethyl)phenyl]ethyl}-amino)prop-1-en-1-yl]-N-(thietan-3-yl)-2-(trifluoromethyl)benzamide], the pest or weed control at 0.02 mg in the data set on Boophilus microplus [6] came out at 100%. The pest or weed control at 100 g/ha in data set [1] was 100%; in data set [2], 80%. This compound also registered an efficacy in % in data set [9] of 100%. This compound registered a chromatographic logP in data set [3] (HPLC-MS) of 3.62.

For the compound `O=C(/C=C/c1ccc(C(=O)NC2CC2)c(C(F)(F)F)c1)NC(c1cc(F)cc(C(F)(F)F)c1)C(F)(F)F` (stereo not drawn) [Ia-229, N-[α,3-Bis(trifluoromethyl)-5-fluorobenzenemethane]-3-trifluoromethyl-4-(N-cyclopropylcarbamoyl)cinnamide], the pest or weed control at 500 g/ha in data set [4], in data set [1] and in data set [2] was 100% each time. Besides, the chromatographic logP in [3] (setting [10]) worked out at 3.59.

Consider `O=C(/C=C/c1cc(C(F)(F)F)c(C(=O)NC2CC2)cn1)NC(c1cccc(C(F)(F)F)c1)C(F)(F)F` (stereo not shown) [If-2, N-Cyclopropyl-6-[(1E)-3-oxo-3-({2,2,2-trifluoro-1-[3-(trifluoromethyl)phenyl]ethyl}amino)-prop-1-en-1-yl]-4-(trifluoromethyl)nicotinamide], for which the pest or weed control at 100 g/ha was found to be 83% in [4], 100% in data set [1] and 100% in [2]. Besides, the efficacy in % in data set [9] turned out to be 100%. Besides, the chromatographic logP in data set [3] (setting [10]) amounted to 3.27.

As for `C=CCNC(=O)c1cc2cc(C(=O)NC(c3cccc(C(F)(F)F)c3)C(F)(F)F)n(C)c2cc1Cl` (stereo not shown) [Ic-32, N^5-Allyl-6-chloro-1-methyl-N^2-{2,2,2-trifluoro-1-[3-(trifluoromethyl)phenyl]ethyl}-1H-indole-2,5-dicarboxamide], the pest or weed control at 500 g/ha in data set [4], in [1] and in data set [2] was 100% throughout. This compound also registered a chromatographic logP in data set [3] (setting [10]) of 3.68.
